Assay results: patent publication US10525139B2, “Folate-conjugated molecules for delivery of toxic small molecule inhibitors to cancer cells and methods of use” (priority 2014, dated 2020)
“Also recorded” adds a separate entry of the source.

How the values were obtained:
NOTCH1 target genes = assay: NOTCH1 target gene expression by RT-PCR in T-ALL cell lines; type: cell-based, human; conditions: T-ALL cells (ALL/SIL, DND41), 24 hours
Description: Errors bars denote mean±SD of 4 replicates. […] The blot was stained with an antibody against the C-terminus of NOTCH1 that recognizes both the furin-processed NOTCH1 transmembrane subunit (TM) and the unprocessed NOTCH1 precursor (FL). The immunoblot was also stained with anti-ICN1 antibody. GAPDH was used as a loading control. […] Error bars indicate the mean±SD of 4 replicates. Data were analyzed using the ΔΔCT method and plotted as a percentage relative to the control gene RPL13A. Statistical significance among groups for treated vs. vehicle (DMSO) samples (***P≤0.0001) was determined by one-way ANOVA with Bonferroni's correction for multiple comparison testing. […] The blot was stained with an antibody against the C-terminus of NOTCH1 (N1) that recognizes both the furin-processed NOTCH1 transmembrane subunit (TM). GAPDH was used as a loading control. […] Cells were probed with an anti-NOTCH1 antibody (green) and nuclei were counterstained with DAPI. […] Error bars indicate the mean±SD of 4 replicates. Data were analyzed using the ΔΔCT method and plotted as a percentage relative to the control gene RPL13A. Statistical significance (***P≤0.001. ****P≤0.0001) for treated vs. vehicle (DMSO) was determined by one-way ANOVA with Bonferroni's correction for multiple comparison testing. […]

[1] = LCMS analysis of cell lysate and media; type: in vitro ADME; conditions: 24 h treatment with FT
Description: In order to validate the delivery of the Thap-OH, LCMS analysis of the cell lysate and the media was used to detect the presence of both Folate-Thap (FT) and Thap-OH. […] To directly visualize the folate delivery of a small molecule, folic acid derivatives with appended fluorophores were designed. Both Folate-FITC, suitable for flow cytometry studies, and Folate-TMARA, suitable for high-throughput fluorescence plate readers, were evaluated in vitro to determine the delivery mechanism.

[2] = system: NOTCH1 L1601P ΔPEST T-ALL; assay: Syngeneic T-ALL mouse model carrying NOTCH1 L1601P ΔPEST; type: in vivo
Description: Viability data is represented as percentage relative to vehicle treatment and errors bars denote mean±SD of 3 replicates. Statistical significance of treated vs. vehicle (DMSO) samples (***P≤0.01; ***P≤0.001) was determined by one-way ANOVA with Bonferroni's correction for multiple comparison testing. […] The immunoblot contains cell lysates stained with anti-ICN1 antibody (Val1744) after treatment with the 10 μM of JQ-FT for 24 hours in vitro. GAPDH was used as a loading control ICN1 loss was quantified and bar graph (panel e) corresponds to the results of the quantification of three independent experiments. Statistical significance of treated vs. vehicle (DMSO) samples (*P≤0.05) was determined by Student's t-test. Expression of indicated NOTCH1 target genes HesI (panel d) and Dtx1 (panel e) in murine NOTCH1 L1601P ΔPEST expressing leukemia lymphoblasts treated with 10 μM JQ-FT for 24 hours was determined by qRT-PCR. Error bars indicate the mean±SD of 3 replicates. Data were analyzed using the ΔΔCT method and plotted as a percentage relative to the control gene Gapdh. Statistical significance for treated vs. vehicle (DMSO) (*P≤0.05) was determined by Student's t-test. […] The spleen and the liver of all mice were examined; representative results for one control animal and one JQ-FT-treated animal are shown. Formalin-fixed, paraffin-embedded tissue sections were stained using the hematoxylin and eosin stain (H & E) method. […] Anti-leukemic activity of JQ-FT was assessed by measuring spleen weight upon 5 days of JQ-FT treatment (60 mg/kg I.P) or vehicle (65% D5W+30% PEG-400+5% Tween-80only). […] Statistical significance for treated vs. vehicle (*P≤0.05) was determined by non-parametric t-test (Mann-Whitney). […] Error bars indicate mean±SD of 4 replicates (of the 4 animals of each group). Statistical significance for treated vs. vehicle (*P≤0.05) was determined by non-parametric t-test (Mann-Whitney). […] The immunoblot contains splenic cell lysates stained with anti-ICN1 antibody (Val1744) after treatment with the 60 mg/Kg of JQ-FT for 5 days. GAPDH was used as a loading control. ICN1 loss was quantified and bar graph (j) corresponds to the results of the quantification. Statistical significance for treated vs. vehicle (*P≤0.05) was determined by Student's t-test.
In vitro studies provide valuable mechanistic insights but may not recapitulate tumor micro-environment and metabolic conditions in vivo. Indeed, a significant limitation of research on folate-conjugate drugs is the inconsistency between free folate concentrations (and other middle metabolites) in culture conditions in vitro versus in vivo. High levels of free folic acid in the sera may block the binding and uptake of JQ-FT in FR2-positive T-ALL compromising the anti-NOTCH1 leukemia effect observed in vitro. To explore the therapeutic efficacy of JQ-FT in vivo, we studied effects on a syngeneic T-ALL mouse model carrying a NOTCH1 L1601P ΔPEST, a common mutation observed in the human disease. First, leukemia cells obtained from this model were treated with JQ-FT for 24 hours in vitro.
Though the JQ-FT conjugate has not, as yet, been optimized for pharmacologic properties, we are eager to explore the utility of the compound as an in vivo chemical probe, while assessing putative tolerability of folate-conjugated thapsigargins. We first established the maximal tolerated dose (MTD) of JQ-FT as 60 mg/kg/day in mice, as administered by daily intraperitoneal injection. […]

Structure (SMILES): C/C=C(/C)C(=O)O[C@H]1C(C)=C2C([C@@H]1OC(=O)CCCCCCC)[C@@](C)(OC(C)=O)C[C@H](OC(=O)CC[C@H](NC(=O)c1ccc(NCc3cnc4nc(N)[nH]c(=O)c4n3)cc1)C(=O)O)[C@@]1(O)[C@H]2OC(=O)[C@@]1(C)O (stereo partly shown) [JQ-FT]
- NOTCH1 target gene expression (NOTCH1 target genes): suppression of NOTCH1 target genes
- detection of the conjugate in cell culture media and cell lysate [1]: not detected in either cell culture media (24 h treatment) or cell lysate
- bone marrow infiltration by T-ALL (GFP+ leukemia cells) ([2]; 60 mg/kg IP daily, five days): markedly inhibited
- leukemic infiltration in spleen and liver (histology) ([2]; 60 mg/kg IP daily, five days): decrease of leukemic infiltration in spleen and liver; also recorded: Growth suppression of lymphoblasts
- spleen weight ([2]; 60 mg/kg IP daily, five days): reduction in spleen weight
- tumor growth ([2]; 60 mg/kg IP daily, five days): evident decrease in tumor growth
- ICN1 expression in T-ALL cells from treated animals ([2]; 60 mg/kg, 5 days, splenic cell lysates, vs vehicle): reduced ICN1 expression
